From patent US12336981B2, “Compounds and compositions for the inhibition of NAMPT” (Valo Health, Inc., priority 2010, dated 2025)
Like-named read-outs stand apart in the source and are kept apart here.

How the values were obtained:
[1] = target: T1, NAMPT (Homo sapiens, UniProt P43490); assay: Biochemical inhibition assay: NAMPT enzymatic reaction, NMN quantified by mass spectrometry; details: read-out: Biochem IC50
T1 construct: His tag; host or cells: E. coli
Experimental: Biochemical Inhibition Assay
NAMPT Protein Purification
Recombinant His-tagged NAMPT was produced in E. coli cells, purified over a Ni column, and further purified over a size-exclusion column by XTAL Biostructures.
The NAMPT Enzymatic Reaction
The NAMPT enzymatic reactions were carried out in Buffer A (50 mM Hepes pH 7.5, 50 mM NaCl, 5 mM MgCl2, and 1 mM THP) in 96-well V-bottom plates. The compound titrations were performed in a separate dilution plate by serially diluting the compounds in DMSO to make a 100× stock. […] The compound and enzyme mix was incubated for 15 minutes at room temperature, then 10 μL of 10× substrate and co-factors in Buffer A were added to the test well to make a final concentration of 1 μM NAM, 100 μM 5-Phospho-D-ribose 1-diphosphate (PRPP), and 2.5 mM Adenosine 5′-triphosphate (ATP). The reaction was allowed to proceed for 30 minutes at room temperature, then was quenched with the addition of 11 μL of a solution of formic acid and L-Cystathionine to make a final concentration of 1% formic acid and 10 μM L-Cystathionine. Background and signal strength was determined by addition (or non-addition) of a serial dilution of NMN to a pre-quenched enzyme and cofactor mix.
A mass spectrometry-based assay was used to measure the NAMPT reaction product (NMN) and the internal control (L-Cystathionine). NMN and L-Cystathionine were detected using the services of Biocius Lifesciences with the RapidFire system. In short, the NMN and L-Cystathionine are bound to a graphitic carbon cartridge in 0.1% formic acid, eluted in 30% acetonitrile buffer, and injected into a Sciex 4000 mass spectrometer. The components of the sample were ionized with electrospray ionization and the positive ions were detected. […] The fragments are quantified and the analyzed by the following method.
First the NMN signal is normalized to the L-Cystathionine signal by dividing the NMN signal by the L-Cystathionine signal for each well. The signal from the background wells are averaged and subtracted from the test plates. […] IC50s are Determined Using Excel and this Formula.

[2] = test system: A2780 cells; assay: In-vitro cell proliferation assay (SRB), A2780 cells; type: cell-based; details: A2780 cells, 72 hours, read-out: A2780 IC50
Experimental: In-Vitro Cell Proliferation Assay
After overnight incubation at 37° C. and 5% CO2, the compound titrations were performed in a separate dilution plate by serially diluting the compounds in DMSO to make a 1000× stock. The compounds were then further diluted to 10× final concentration in culture media, whereupon 20 μL of each dilution was added to the plated cells with controls (e.g. DMSO and blank) to make a final volume of 200 μL. The final DMSO concentration in each well was 0.1%. The plates were then incubated for 72 hours at 37° C. in a 5% CO2 incubator. The number of viable cells was then assessed using sulforhodamine B (SRB) assay. Cells were fixed at 4° C. for 1 hour with the addition of 50 μL 30% trichloroacetic acid (TCA) to make a final concentration of 6% TCA. The plates were washed four times with H2O and allowed to dry for at least 1 hour, whereupon 100 μL of a 4% SRB in 1% acetic acid solution was added to each well and incubated at room temperature for at least 30 minutes. The plates were then washed three times with 1% acetic acid, dried, and treated with 100 μL of 10 mM Tris-Base solution. The plates were then read in a microplate reader at an absorbance of 570 nm. Background was generated on a separate plate with media only.
Method for Determining % Inhibition
First, the signals from the background plate are averaged, then the background was subtracted from the test plates.
wherein X denotes the compound concentration 1, Y denotes the compound concentration 2, XX denotes the % inhibition at compound concentration 1 (X), and YY denotes the % inhibition at compound concentration 2 (Y).

[3] = Homo sapiens, A2780, 72 h, SRB assay

T1 sequence (P43490 whole entry): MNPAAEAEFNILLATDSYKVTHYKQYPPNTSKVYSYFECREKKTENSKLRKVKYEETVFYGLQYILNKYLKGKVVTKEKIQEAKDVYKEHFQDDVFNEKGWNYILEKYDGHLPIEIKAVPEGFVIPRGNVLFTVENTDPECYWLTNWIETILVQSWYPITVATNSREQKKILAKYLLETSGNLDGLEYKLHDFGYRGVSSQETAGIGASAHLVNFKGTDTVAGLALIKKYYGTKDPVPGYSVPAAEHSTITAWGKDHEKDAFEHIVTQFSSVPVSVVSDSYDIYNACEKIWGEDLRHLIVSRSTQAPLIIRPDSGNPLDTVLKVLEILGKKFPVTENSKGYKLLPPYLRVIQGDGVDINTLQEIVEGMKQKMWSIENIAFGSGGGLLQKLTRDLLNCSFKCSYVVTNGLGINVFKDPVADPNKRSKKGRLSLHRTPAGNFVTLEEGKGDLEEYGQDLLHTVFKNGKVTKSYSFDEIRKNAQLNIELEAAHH

SMILES | IC50 ([2]; Homo sapiens, A2780, 72 h, SRB) [nM] | other results
Cc1nc(C)c(S(=O)(=O)c2ccc(CNC(=O)c3cnc4[nH]ncc4c3)cc2)s1 [N-{[4-(dimethyl-1,3-thiazole-5-sulfonyl)phenyl]methyl}-1H-pyrazolo[3,4-b]pyridine-5-carboxamide] | 16.4 | IC50 ([1]; NAMPT enzymatic assay): 38.6 nM
COc1ccc(S(=O)(=O)c2ccc(CNC(=O)c3cnc4nccn4c3)cc2)c(C)c1 | 67.9 | IC50 ([1]; NAMPT enzymatic reaction): 2.4 nM
CCOc1ccccc1S(=O)(=O)c1ccc(CNC(=O)c2cc3cnccc3[nH]2)cc1 [N-({4-[(2-ethoxybenzene)sulfonyl]phenyl}methyl)-1H-pyrrolo[3,2-c]pyridine-2-carboxamide] |  | IC50 ([1]; NAMPT enzymatic reaction): 11 nM; IC50 [2, 3]: 2 nM
Cc1c(Cl)cccc1S(=O)(=O)c1ccc(CNC(=O)c2cnc3[nH]ncc3c2)cc1 [N-({4-[(3-chloro-2-methylbenzene)sulfonyl]phenyl}methyl)-1H-pyrazolo[3,4-b]pyridine-5-carboxamide] | 16.1 | IC50 ([1]; NAMPT enzymatic reaction): 36.9 nM
CCOc1ccc(S(=O)(=O)c2ccc(CNC(=O)c3cnc4nccn4c3)cc2)cc1 | 6.1 | IC50 ([1]; NAMPT enzymatic reaction): 2 nM
CCOc1ccc(S(=O)(=O)c2ccc(CNC(=O)c3cnc4[nH]ncc4c3)cc2)c(C)c1 | 66.7 | IC50 ([1]; NAMPT enzymatic reaction): 108 nM
CN(C)c1ncc(S(=O)(=O)c2ccc(CNC(=O)c3cc4ccncc4s3)cc2)cn1 [N-({4-[2-(dimethylamino)pyrimidine-5-sulfonyl]phenyl}methyl)thieno[2,3-c]pyridine-2-carboxamide] | 1.7 | IC50 ([1]; NAMPT enzymatic assay): 8 nM
O=C(NCc1ccc(S(=O)(=O)c2cccc(-c3ccccc3)c2)cc1)c1cc2ccncc2s1 | 10 | IC50 ([1]; NAMPT enzymatic reaction): 4.5 nM
Cc1ccc(S(=O)(=O)c2ccc(CNC(=O)c3ccc4nccn4c3)cc2)cc1 [N-({4-[(4-methylbenzene)sulfonyl]phenyl}methyl)imidazo[1,2-a]pyridine-6-carboxamide] | 12 | IC50 ([1]; NAMPT enzymatic reaction): 17.6 nM
O=C(NCc1ccc(S(=O)(=O)c2ccc(C(F)(F)F)c(Cl)c2)cc1)c1cnc2[nH]ncc2c1 [N-[(4-{[3-chloro-4-(trifluoromethyl)benzene]sulfonyl}phenyl)methyl]-1H-pyrazolo[3,4-b]pyridine-5-carboxamide] | 26.4 | IC50 ([1]; NAMPT enzymatic assay): 84.3 nM
O=C(NCc1ccc(S(=O)(=O)c2c(Cl)cccc2Cl)cc1)c1cc2cnccc2[nH]1 | 13.5 | IC50 ([1]; NAMPT enzymatic reaction): 44.7 nM
O=C(NCc1ccc(S(=O)(=O)c2cccc(-c3ccc(F)c(F)c3)n2)cc1)c1cc2ccncc2o1 [N-({4-[6-(3,4-difluorophenyl)pyridine-2-sulfonyl]phenyl}methyl)furo[2,3-c]pyridine-2-carboxamide] | 42.7 | IC50 ([1]; NAMPT enzymatic assay): 5 nM
Cc1ccc(Cl)cc1S(=O)(=O)c1ccc(CNC(=O)c2cc3ccncc3o2)cc1 | 7.8 | IC50 ([1]; NAMPT enzymatic reaction): 5.8 nM
CCCCOc1ccc(S(=O)(=O)c2ccc(CNC(=O)c3cnc4nccn4c3)cc2)cc1F | 3.1 | IC50 ([1]; NAMPT enzymatic reaction): 1.2 nM
O=C(NCc1ccc(S(=O)(=O)c2cnc3ccc(Cl)cn23)cc1)c1cc2ccncc2s1 [N-[(4-{6-chloroimidazo[1,2-a]pyridine-3-sulfonyl}phenyl)methyl]thieno[2,3-c]pyridine-2-carboxamide] | 0.4 | IC50 ([1]; NAMPT enzymatic assay): 1.2 nM
COc1cncc(S(=O)(=O)c2ccc(CNC(=O)c3cnc4nccn4c3)cc2)c1 [N-{[4-(5-methoxypyridine-3-sulfonyl)phenyl]methyl}imidazo[1,2-a]pyrimidine-6-carboxamide] | 25.8 | IC50 ([1]; NAMPT enzymatic assay): 1.6 nM
O=C(NCc1ccc(S(=O)(=O)c2ccc(F)c(C(F)(F)F)c2)cc1)c1ccc2nccn2c1 | 1.7 | IC50 ([1]; NAMPT enzymatic assay): 4 nM
Cc1cc(-n2cccn2)ccc1S(=O)(=O)c1ccc(CNC(=O)c2cc3ccncc3s2)cc1 | 3.1 | IC50 ([1]; NAMPT enzymatic assay): 1.5 nM
O=C(NCc1ccc(S(=O)(=O)c2cccc(CN3CCCCC3)c2)cc1)c1cnc2nccn2c1 | 30.6 | IC50 ([1]; NAMPT enzymatic assay): 1.9 nM
O=C(NCc1ccc(S(=O)(=O)c2cccc3cccnc23)cc1)c1cc2ccncc2o1 [N-{[4-(quinoline-8-sulfonyl)phenyl]methyl}furo[2,3-c]pyridine-2-carboxamide] | 6 | IC50 ([1]; NAMPT enzymatic assay): 7.6 nM

SMILES | IC50 ([2]; Homo sapiens, A2780, 72 h, SRB) [nM] | other results
O=C(NCc1ccc(S(=O)(=O)c2ccc(N3CCOCC3)cc2)cc1)c1cnc2nccn2c1 | 4 | IC50 ([1]; NAMPT enzymatic assay): 1.7 nM
Cc1c(F)cccc1S(=O)(=O)c1ccc(CNC(=O)c2cc3ccncc3s2)cc1 |  | IC50 ([2]; SRB): 21.4 nM
COCc1cccc(S(=O)(=O)c2ccc(CNC(=O)c3cnc4nccn4c3)cc2)c1 | 13.8 | 
O=C(NCc1ccc(S(=O)(=O)c2ccc(C(=O)N3CCCC3)cc2)cc1)c1cc2ccncc2o1 [N-{[4-({4-[(pyrrolidin-1-yl)carbonyl]benzene}sulfonyl)phenyl]methyl}furo[2,3-c]pyridine-2-carboxamide] | 1.4 | 
N#CC1(c2ccc(S(=O)(=O)c3ccc(CNC(=O)c4cnc5nccn5c4)cc3)cc2)CCCC1 | 4.7 | 
O=C(NCc1ccc(S(=O)(=O)c2cccc3cc[nH]c23)cc1)c1cnc2[nH]ncc2c1 [N-{[4-(1H-indole-7-sulfonyl)phenyl]methyl}-1H-pyrazolo[3,4-b]pyridine-5-carboxamide] | 43.2 | 
Cc1cccc(S(=O)(=O)c2ccc(CNC(=O)c3cnc4nccn4c3)cc2)c1F [N-({4-[(2-fluoro-3-methylbenzene)sulfonyl]phenyl}methyl)imidazo[1,2-a]pyrimidine-6-carboxamide] | 21.5 | 
O=C(NCc1ccc(S(=O)(=O)c2cccc(C(F)(F)F)c2)cc1)c1cnc2[nH]ncc2c1 |  | IC50 ([2]; Homo sapiens, SRB): 10.4 nM
O=C(NCc1ccc(S(=O)(=O)c2ccc(-c3ccccc3)cc2)cc1)c1cnc2nccn2c1 | 7.6 | 
O=C(NCc1ccc(S(=O)(=O)c2ccc(C(=O)N3CCCC3)cc2)cc1)c1cc2ccncc2s1 | 1.7 | 
O=C(NCc1ccc(S(=O)(=O)c2cccc(-c3ncccn3)c2)cc1)c1cnc2nccn2c1 | 13 | 
Cn1cc2ccc(S(=O)(=O)c3ccc(CNC(=O)c4cnc5[nH]ncc5c4)cc3)cc2n1 [N-{[4-(2-methyl-2H-indazole-6-sulfonyl)phenyl]methyl}-1H-pyrazolo[3,4-b]pyridine-5-carboxamide] | 7 | 
COc1cc(-n2cccn2)ccc1S(=O)(=O)c1ccc(CNC(=O)c2cnc3nccn3c2)cc1 | 8.7 | 
COc1cc(OC)cc(S(=O)(=O)c2ccc(CNC(=O)c3ccc4nccn4c3)cc2)c1 | 1.5 | 
CC(C)COc1cccc(S(=O)(=O)c2ccc(CNC(=O)c3cc4ccncc4s3)cc2)c1 | 25.2 | 
O=C(NCc1ccc(S(=O)(=O)c2cc(F)cc(F)c2)cc1)c1ccc2nccn2c1 [N-({4-[(3,5-difluorobenzene)sulfonyl]phenyl}methyl)imidazo[1,2-a]pyridine-6-carboxamide] | 1.5 | 
CCOc1cccc(S(=O)(=O)c2ccc(CNC(=O)c3cc4ccncc4s3)cc2)c1 [N-({4-[(3-ethoxybenzene)sulfonyl]phenyl}methyl)thieno[2,3-c]pyridine-2-carboxamide] | 2.9 | 
O=C(NCc1ccc(S(=O)(=O)c2ccc(C(=O)N3CCCC3)cc2)cc1)c1cnc2[nH]ncc2c1 | 9.3 | 
O=C(NCc1ccc(S(=O)(=O)N2CCCCC2)cc1)c1cc2cnccc2[nH]1 [N-{[4-(piperidine-1-sulfonyl)phenyl]methyl}-1H-pyrrolo[3,2-c]pyridine-2-carboxamide] |  | IC50 [2, 3]: 200 nM
CC(C)(C)c1cccc(S(=O)(=O)c2ccc(CNC(=O)c3ccc4nccn4c3)cc2)c1 |  | IC50 ([1]; NAMPT enzymatic reaction): 9.7 nM
